Laboratory results published in US20030017195A1, “Method for oral drug delivery” (priority 2001, published 2003).

Columns and labels:
[1] = type: in vitro ADME, rat
Experimental: The experiment was performed in an in vitro perfusion device.
Patches (2 mm×2 mm) were put into intestine lumen (3 cm in length). One end of the lumen was connected to an infusion inlet, while the other end was connected to a receiving tube. Phosphate buffer solution (PBS) was infused in a constant rate (0.05 ml/min) into the lumen. The entire device was placed on a magnetic stirrer panel, and samples were taken from PBS outside the lumen at predetermined time interval. […] This perfusion system mimics in-vivo intestine fluid movement.
Bioavailability of drug transport from these patches was calculated. Bioavailability refers to the ratio of the amount of drug transported across the intestine to the total amount of drug released at the site of absorption.

[2] = Leakage of drug from patch edges; type: physicochemical; details: within 10 minutes
From the text: In a regular patch without the microspheres structure, when the patch is cut into smaller pieces, drug in the reservoir layer easily leaks from along the breaking edges. In the presence of the microspheres structure, the breakpoint usually occurs between mircrospheres, which make it difficult for the drug to penetrate through the backing layer. So, with the help of microspheres structure, the leakage of drug from the patch can be substantially controlled. Though drug could leak from those microspheres along the edge, where their coating would possibly be broken, for microspheres located away from the edge no leakage can be seen. In a quantitative measurement, within 10 minutes, 60% of sulforhodamine B was lost from the edges in patch.without microspheres structure, while only 10% leaked in the presence of this microspheres structure.

[3] = Unidirectional release of drug from compressed patches in diffusion cell (PBS); type: physicochemical
Experimental: (2) Unidirectional Release of Drug from Compressed Patches: Release of a model drug (Sulforhodamine B) from patches was measured in vitro into phosphate buffered saline (PBS, pH 7.4, 0.01 M). To distinguish drug release from the mucoadhesive side and the backing side of the patch, the patches were placed in a custom-designed diffusion cell. The cell comprised two chambers placed side-by-side with an opening provided between the chambers of about 3.14 mm^2. A patch (4 mm in diameter) was placed between the two chambers and each chamber was filled with 6 ml PBS. Vacuum grease was used to seal the joint to avoid leakage of PBS. Amount of sulforhodamine B released from either side of the patch into the solution was quantified at 565 nm using a spectrophotometer (UV-1601, Shimadzu Corporation).
To assess whether unidirectionality of release is also observed when the patch is placed on the intestine, the following experiments were performed. A section of pig intestine was placed on a diffusion cell such that the mucosal side faced the upper (donor) chamber. The donor chamber was filled with 2 ml PBS. Under these conditions, the thickness of the PBS layer on the intestine was about […]. A sulforhodamine-containing patch (4 mm in diameter) was prepared using methods described above was gently placed on the intestine. A stirring bar was placed on a mesh, which was placed about 1 cm above the patch. The receiver chamber was filled with 12 ml PBS. A stirring bar was placed in the receiver chamber. The cell was placed on a magnetic stirrer and stirred at 400 rpm for 120 minutes. Amount of sulforhodamine B released into donor and receiver chambers was measured using the same spectrophotometer described above. Percentages of sulforhodamine B delivered into the receiver and donor chambers were calculated (Figure 12). By measuring the total amount of sulforhodamine B released from the patch, the percent of sulforhodamine B delivered into the intestine was also calculated.

non-diabetic rats = test: Intestinal delivery of insulin patches in non-diabetic rats (blood glucose); type: in vivo, Sprague Dawley (SD) rats; details: 10 IU/kg in the intestine
Experimental: Intestinal delivery of insulin patches in non-diabetic rats: All animal experiments were4conducted under aseptic conditions using institutionally approved protocols. Male Sprague Dawley (SD) rats, weighing 350-450 g fasted for 16 hours were anesthetized using gas anesthesia (1.25-4% isofluorane in oxygen). Rat intestine was exposed through a midline abdominal incision (2.0 cm). A small longitudinal incision (5 mm) was made about 5 cm from the proximal end of the small intestine. Patches (3-6 pieces, 2 mm in diameter) containing insulin (0.4-1.2 IU/patch, totally 5 IU/kg or 10 Iu/kg per rat) were randomly inserted through the opening into the lumen. The incisions were then sealed by surgical tissue (NEXABAND®, Veterinary Products Laboratories, Phoenix, Ariz.). […] Blood glucose level was measured using a glucometer (Excite® XL, Bayer Corporation, Elkhart, Ind.). […] The areas above the glucose curve (AAC) were calculated by the trapezoidal method (Carino G P, Jacob J S, Mathiowitz E. 2000. Nanosphere based oral insulin delivery. J Controlled Release 65:261-269). The apparent relative pharmacological bioavailability of insulin from non-diabetic rats was calculated by comparing the AAC following intestinal administration under different doses with that following subcutaneous administration.

| Compound | fraction transported across rat intestine from patches compared to solution form [1] | sulforhodamine B leaked from the edges ([2]; patch in the presence of microspheres structure) | sulforhodamine B lost from the edges ([2]; patch without microspheres structure) | difference in release profile when different compression pressures were used during patch preparation [3] | drug released from the backing side of the patch ([3]; 120 minutes, PBS pH 7.4) | drug released from the mucoadhesive side of the patch ([3]; 120 minutes, PBS pH 7.4) | share of released drug that was released from the mucoadhesive side ([3]; compressed patch) | hypoglycemia after administration in the intestine (non-diabetic rats) |
| --- | --- | --- | --- | --- | --- | --- | --- | --- |
| CCN(CC)c1ccc2c(-c3ccc(S(=O)(=O)O)cc3S(=O)(=O)[O-])c3ccc(=[N+](CC)CC)cc-3oc2c1 [sulforhodamine B] | higher fraction | 10% | 60% | no significant difference | less than 0.3% | about 10% | more than 97% |  |
| insulin solution: bovine insulin solution (pH 7), negative control administered in the intestine at 10 IU/kg |  |  |  |  |  |  |  | did not produce detectable hypoglycemia |
